According to patent publication US9447103B2, “Inauhzin analogues that induce P53, inhibit cell growth, and have antitumor activity” (Indiana University Research and Technology Corp., priority 2012, dated 2016):
Where “and” joins values, the source holds several entries; their conditions need not be identical. Identical values can stand only once. Entries after “also recorded” stand apart in the source; their conditions may differ. Like-named read-outs stand apart in the source and are kept apart here.

Tests used:
[1] = test system: H460 and HCT116^+/+ cells; assay: Cell growth inhibition (WST), statements covering both p53-containing lines; type: cell-based, human; settings: for EC90 fold lower than INZ: H460 and HCT116^+/+; for EC90: Homo sapiens, H460 and HCT116^+/+ together, read-out: EC90 values, range over H460 and HCT116^+/+
Source text: (§1) Cell Culture and Immunoblotting Analysis.

[2] = test system: H1299 cells and HCT116^−/− cells; assay: Cell growth inhibition (WST), statements covering p53-null lines; settings: for inhibitory activity in p53-null cells: in contrast to p53-containing cells
Method: (§2) The EC50 values for their ability to inhibit cell growth were calculated through serial dilution of their concentrations with the highest concentration at 50 μM.
(§3) Human lung carcinoma H460, non-small-cell lung cancer H1299, human colon cancer HCT116 (HCT116^+/+), and human embryonic fibroblast WI-38 were bought from the American Type Culture Collection (ATCC). […] Those cell lines were cultured in Dulbecco's modified Eagle's medium supplemented with 10% fetal bovine serum, 100 U per mL penicillin, and 100 U per mL streptomycin. Compounds were dissolved in DMSO and diluted directly into the medium to the indicated concentrations; 0.1% DMSO was used as a control.
(§4) Cell Viability Assay. To assess cell growth, the cell counting kit (Dojindo Molecular Technologies Inc., Gaithersburg, Md.) was used according to manufacturer's instructions. Cell suspensions were seeded at 3,000 cells per well in 96-well culture plates and incubated overnight at 37° C. Compounds were added into the plates and incubated at 37° C. for 72 hrs. Cell growth inhibition was determined by adding WST-8 at a final concentration of 10% to each well, and the absorbance of the samples was measured at 450 nm using a Microplate Reader (Molecular Device, SpecrtraMax M5^e). EC50 values were determined by the Hill equation using Igor 4.01 (Lake Oswego, Oreg., USA).

p53 = p53 induction by immunoblotting (IB), H460 and/or HCT116^+/+ cells (line not singled out); type: cell-based, human; settings: 18 hrs; for p53 induction at 0.5 μM: IB; for p53 induction / activation: synthetic analogs, IB, 0.5, 2, 10 μM, compared to INZ
Source text: Initial Inauhzin analogs were purchased and tested the activity on H460 and HCT116^p53+/+ by IB.
This study also investigated the activity of the compounds in cell-based assays for their ability to induce p53 levels in p53 containing human colon cancer HCT116^+/+ cells and/or human lung cancer H460 cells using immunoblotting (IB) (FIG. 1 and FIG. 8). […] Both triazino[5,6-b]indol (G1) and phenothiazine (G2) are essential functional groups for p53 induction. […] Therefore, further attention was focused on the structural modifications of the pharmacologically active core: triazino[5,6-b]indol or phenothiazine. Modifications included extension of carbon chain length on R1 (14) (FIG. 2B), the substitution on the phenothiazine ring (G2) (6-13) (FIG. 2A) or on the triazino[5,6-b]indol ring (G1) (15-36) (FIGS. 2B-2D).
as §1

HCT116^−/− = assay: Cell viability assay (3-day WST-8), HCT116^−/− (p53 null); settings: for EC50: read-out: EC50 cell growth inhibition
Method: as §2, §3, §4

H460 = assay: Cell viability assay (3-day WST-8), H460; type: cell-based, human; settings: for fold higher potency than INZ in growth inhibition: H460, versus INZ; for EC50 / EC90: H460, p53 wild type; for EC50: 72 hrs, average of triplicates, read-out: EC50 cell growth inhibition; for EC90: calculated from EC50 and Hill slope, read-out: EC90 cell growth inhibition
Method: (§5) Those cell lines were cultured in Dulbecco's modified Eagle's medium supplemented with 10% fetal bovine serum, 100 U per mL penicillin, and 100 U per mL streptomycin. Compounds were dissolved in DMSO and diluted directly into the medium to the indicated concentrations; 0.1% DMSO was used as a control.
(§6) Cell Viability Assay. To assess cell growth, the cell counting kit (Dojindo Molecular Technologies Inc., Gaithersburg, Md.) was used according to manufacturer's instructions. Cell suspensions were seeded at 3,000 cells per well in 96-well culture plates and incubated overnight at 37° C. Compounds were added into the plates and incubated at 37° C. for 72 hrs. Cell growth inhibition was determined by adding WST-8 at a final concentration of 10% to each well, and the absorbance of the samples was measured at 450 nm using a Microplate Reader (Molecular Device, SpecrtraMax M5^e).

HCT116^+/+ = assay: Cell viability assay (3-day WST-8), HCT116^+/+; type: cell-based, human; settings: for fold higher potency than INZ in growth inhibition: versus INZ
Method: as §5, §6

H1299 = assay: Cell viability assay (3-day WST-8), H1299 (p53 null); settings: for EC50: read-out: EC50 cell growth inhibition
Method: as §5, §6

[3] = test system: xenograft tumors derived from p53-harboring lung cancer H460 and colon cancer HCT116^+/+ cells; settings: background, earlier work; cited from earlier work
[4] = test system: H460 orthotopic lung tumors; assay: H460 orthotopic lung tumor model, bioluminescent imaging; type: in vivo, SCID mice; settings: i.p. 50 mg/kg once a day for 3 weeks, H460-Luc cells in pleural space
Method: FIGS. 13A and 13B show the effects of compound 37 on the growth of H460 orthotopic lung tumors. Each mouse was dosed once a day via i.p. with either vehicle or compound 37 (50 mg/kg) for 3 weeks starting 4 days after implantation of 5×10^5 H460-Luc tumor cells into the pleural space of the SCID mice. […] Each value is a mean of five animals ±SD. FIG. 13B is bioluminescent imaging (BLI) of orthotopic lung tumors in SCID mice.
The effects of compound 8 on the growth of H460 orthotopic lung tumors. Each mouse was dosed once a day via i.p. with either vehicle or 14 (50 mg/kg) for 3 weeks starting 4 days after implantation of 5×10^5 H460-Luc tumor cells into the pleural space of the SCID mice. […] Each value is a mean of five animals ±SD.

[5] = Homo sapiens, HCT-116, HCT116+/+ cells, values of b177 (differ from Table 1), read-out: EC50 growth inhibition
[6] = Homo sapiens, HCT-116, HCT116^+/+, p53 wild type, calculated from EC50 and Hill slope, read-out: EC90 cell growth inhibition

CCC(Sc1nnc2c(n1)[nH]c1cc(C)ccc12)C(=O)N1c2ccccc2Sc2ccccc21 (stereo not drawn) [Compound 19, 2-((7-methyl-5H-[1,2,4]triazino[5,6-b]indol-3-yl)thio)-1-(10H-phenothiazin-10-yl)butan-1-one]
EC90 fold lower than INZ ([1]; versus INZ): 1.5 fold
EC90 [1]: 20 to 30 µM
inhibitory activity in p53-null cells [2]: much less effective
p53 induction at 0.5 μM (p53): significant effect on p53 induction compared to INZ

CCC(Sc1nnc2c3ccccc3n(CCO)c2n1)C(=O)N1c2ccccc2Cc2ccccc21 (stereo not drawn) [Compound 37, 1-(acridin-10(9H)-yl)-2-((5-(2-hydroxyethyl)-5H-[1,2,4]triazino[5,6-b]indol-3-yl)thio)butan-1-one]
EC90 (HCT116^−/−; Homo sapiens, HCT-116, read-out: EC90 cell growth inhibition, HCT116^−/−, p53 null, calculated from EC50 and Hill slope): > 50 µM
fold higher potency than INZ in growth inhibition (H460): 10 fold
potency improvement compared to INZ in cancer growth inhibition ([1]; versus INZ): 5- to 10 fold
inhibitory activity in p53-null cells [2]: much less effective
fold higher potency than INZ in growth inhibition (HCT116^+/+; HCT116^+/+): 5 fold
EC90 (H1299; Homo sapiens, NCI-H1299, read-out: EC90 cell growth inhibition, H1299, p53 null, calculated from EC50 and Hill slope): > 50 µM
p53 induction / activation (p53): more potent in p53 activation than their parental compound INZ

CCC(Sc1nnc2c(n1)[nH]c1ccccc12)C(=O)N1c2ccccc2Sc2ccccc21 (stereo not drawn) [INZ, 2-((5H-[1,2,4]triazino[5,6-b]indole-3yl)thio)-1-(10H-phenothiazin-10-yl)butan-1-one, reference compound]
EC50 (HCT116^−/−; Homo sapiens, HCT-116, 72 h): 13.3 ± 2.4 µM
EC90 (HCT116^−/−; Homo sapiens, HCT-116, read-out: EC90 cell growth inhibition): 213 µM
growth of xenograft tumors [3]: repressed the growth of xenograft tumors
EC50 (H460; Homo sapiens, NCI-H460): 7.7 ± 1.1 µM
EC90 (H460; Homo sapiens, NCI-H460): ~39.9 µM
EC50 fold greater in p53-null cells than in p53-containing cell lines ([2]; p53-null versus p53-containing): 1.5 fold
EC90 fold greater in p53-null cells than in p53-containing cell lines ([2]; p53-null versus p53-containing): 5-7 fold
EC50 (HCT116^+/+; [5]): 3.52 µM
EC50 (HCT116^+/+; Homo sapiens, HCT-116, HCT116^+/+, p53 wild type, 72 hrs, read-out: EC50 cell growth inhibition): 2.7 ± 0.3 µM
EC90 (HCT116^+/+; [6]): 30.5 µM
EC50 (H1299; Homo sapiens, NCI-H1299, 72 h): 11.6 ± 3.4 µM
EC90 (H1299; Homo sapiens, NCI-H1299, read-out: EC90 cell growth inhibition): 217 µM

CCC(Sc1nnc2c(n1)[nH]c1ccccc12)C(=O)N1c2ccccc2Cc2ccccc21 (stereo not drawn) [Compound 8, 2-((5H-[1,2,4]triazino[5,6-b]indol-3-yl)thio)-1-(acridin-10(9H)-yl)butan-1-one]
bioactivity against orthotopic lung cancers (tumor burden by BLI, words) [4]: exhibited highly promising bioactivity against orthotopic lung cancers
fold higher potency than INZ in growth inhibition (H460): more than 2 fold
EC90 (H460; Homo sapiens, NCI-H460): 3.5 µM
EC90 fold lower than INZ ([1]; versus INZ): 3-10 fold
EC90 [1]: 3.5 to 10 µM
inhibitory activity in p53-null cells [2]: much less effective
EC90 fold lower than INZ (HCT116^+/+; HCT116+/+ cells, b177): 5 fold
fold higher potency than INZ in growth inhibition (HCT116^+/+; HCT116^+/+): more than 2 fold
fold higher potency than INZ in growth inhibition (HCT116^+/+; HCT116^+/+, listed as INZ-14): over 2 fold
EC90 (HCT116^+/+; Homo sapiens, HCT-116, HCT116+/+ cells, b177, read-out: EC90): ~10 µM
EC50 (HCT116^+/+; [5]): 1.41 µM
EC90 (HCT116^+/+; [6]): 10 µM
p53 induction at 0.5 μM (p53): drastically induced p53
p53 induction / activation (p53): more potent in p53 activation than their parental compound INZ

CCC(Sc1nnc2c3ccccc3n(CC(=O)c3ccccc3)c2n1)C(=O)N1c2ccccc2Sc2ccccc21 (stereo not drawn) [Compound 33, 2-((5-(2-oxo-2-phenylethyl)-5H-[1,2,4]triazino[5,6-b]indol-3-yl)thiol)-1-(10H-phenothiazin-10-yl)butan-1-one]
p53 induction / activation (p53): significant decrease in activity

CCC(Sc1nnc2c(n1)[nH]c1ccccc12)C(=O)N1c2ccccc2Sc2ccc(OC)cc21 (stereo not drawn) [Compound 7, 2-((5H-[1,2,4]triazino[5,6-b]indol-3-yl)thio)-1-(2-methoxy-10H-phenothiazin-10-yl)butan-1-one]
p53 induction / activation (p53): remained active in p53 induction

CCC(Sc1nnc2c(n1)[nH]c1ccccc12)C(=O)N1c2ccccc2Sc2ccc(Cl)cc21 (stereo not drawn) [Compound 6, 2-((5H-[1,2,4]triazino[5,6-b]indol-3-yl)thio)-1-(2-chloro-10H-phenothiazin-10-yl)butan-1-one]
p53 induction / activation (p53): remained active in p53 induction

CCC(Sc1nnc2c3ccccc3n(CC(=O)O)c2n1)C(=O)N1c2ccccc2Sc2ccccc21 (stereo not drawn) [Compound 29, 2-(3-((1-oxo-1-(10H-phenothiazin-10-yl)butan-2-yl)thio)-5H-[1,2,4]triazino[5,6-b]indol-5-yl)acetic acid]
p53 induction / activation (p53): essentially inactive

C#CCCn1c2ccccc2c2nnc(SC(CC)C(=O)N3c4ccccc4Sc4ccccc43)nc21 (stereo not drawn) [Compound 32, 2-((5(but-3-yn-1-yl)-5H-[1,2,4]triazino[5,6-b]indol-3-yl)thiol)-1-(10H-phenothiazin-10-yl)butan-1-one]
p53 induction / activation (p53): significant decrease in activity

CCC(Sc1nnc2c3ccccc3n(C(=O)c3ccccc3)c2n1)C(=O)N1c2ccccc2Sc2ccccc21 (stereo not drawn) [Compound 21, 2-((5-benzoyl-5H-[1,2,4]triazino[5,6-b]indol-3-yl)thio)-1-(10H-phenothiazin-10-yl)butan-1-one]
inhibitory activity in p53-null cells [2]: much less effective

CCCCC(Sc1nnc2c(n1)[nH]c1ccccc12)C(=O)N1c2ccccc2Sc2ccccc21 (stereo not drawn) [Compound 14, 2-((5H-[1,2,4]triazino[5,6-b]indol-3-yl)thio)-1-(10H-phenothiazin-10-yl)hexan-1-one]
p53 induction / activation (p53): lower activity for p53 induction

CCOC(=O)Cn1c2ccccc2c2nnc(SC(CC)C(=O)N3c4ccccc4Sc4ccccc43)nc21 (stereo not drawn) [Compound 28, Ethyl 2-(3-((1-oxo-1-(10H-phenothiazin-10-yl)butan-2-yl)thio)-5H-[1,2,4]triazino[5,6-b]indol-5-yl)acetate]
p53 induction / activation (p53): essentially inactive

CCC(Sc1nnc2c3ccccc3n(CCO)c2n1)C(=O)N1c2ccccc2Sc2ccccc21 (stereo not drawn) [Compound 30, 2-((5(2-hydroxyethyl)-5H-[1,2,4]triazino[5,6-b]indol-5-yl)thiol)-1-(10H-phenothiazin-10-yl)butan-1-one]
EC50 (HCT116^−/−; HCT116^−/−, p53 null, 72 hrs): 7.8 ± 3.4 µM
EC50 (H460): 3.5 ± 0.4 µM
EC90 (H460): ~7.7 µM and 7.7 µM
EC90 fold lower than INZ ([1]; versus INZ): 5 fold
cell growth inhibition ([1]; compared with INZ or compound 8): comparable to compound 8
inhibitory activity in p53-null cells [2]: much less effective
EC50 (HCT116^+/+; HCT116^+/+, p53 wild type, 72 hrs, read-out: EC50 cell growth inhibition): 0.8 ± 0.5 µM
EC90 (HCT116^+/+; HCT116^+/+, p53 wild type, calculated from EC50 and Hill slope, read-out: EC90 cell growth inhibition): 4.6 µM
EC50 (H1299; H1299, p53 null, 72 hrs): 16.6 µM
p53 induction / activation (p53): comparable to compound 8; also recorded: more potent in p53 activation than their parental compound INZ

CCC(Sc1nnc2c3ccccc3n(C(=O)CCCCC3CC4NC(=O)NC4S3)c2n1)C(=O)N1c2ccccc2Sc2ccccc21 (stereo not drawn) [Compound 20, 5-(5-oxo-5-(3-((1-oxo-1-(10H-phenothiazin-10-yl)butan-2-yl)thio)-5H-[1,2,4]triazino[5,6-b]indol-5-yl)pentyl)tetrahydro-1H-thieno[2,3-d]imidazole-2(5H)-one]
p53 induction / activation (p53): as effective as INZ

CCC(Sc1nnc2c(n1)[nH]c1cc(OC)ccc12)C(=O)N1c2ccccc2Sc2ccccc21 (stereo not drawn) [Compound 18, 2-((7-methoxy-5H-[1,2,4]triazino[5,6-b]indol-3-yl)thio)-1-(10H-phenothiazin-10-yl)butan-1-one]
p53 induction / activation (p53): marked decrease in p53 activation
